# Earlier results, collected in patent US20130338095A1, “Chemosensory Receptor Ligand-Based Therapies” (ELCELYX THERAPEUTICS, INC., priority 2010, published 2013).
# Molecular target: T1, sweet receptor (Homo sapiens, UniProt Q7RTX0+Q8TE23)
# T1 sequence (Q8TE23 20-839): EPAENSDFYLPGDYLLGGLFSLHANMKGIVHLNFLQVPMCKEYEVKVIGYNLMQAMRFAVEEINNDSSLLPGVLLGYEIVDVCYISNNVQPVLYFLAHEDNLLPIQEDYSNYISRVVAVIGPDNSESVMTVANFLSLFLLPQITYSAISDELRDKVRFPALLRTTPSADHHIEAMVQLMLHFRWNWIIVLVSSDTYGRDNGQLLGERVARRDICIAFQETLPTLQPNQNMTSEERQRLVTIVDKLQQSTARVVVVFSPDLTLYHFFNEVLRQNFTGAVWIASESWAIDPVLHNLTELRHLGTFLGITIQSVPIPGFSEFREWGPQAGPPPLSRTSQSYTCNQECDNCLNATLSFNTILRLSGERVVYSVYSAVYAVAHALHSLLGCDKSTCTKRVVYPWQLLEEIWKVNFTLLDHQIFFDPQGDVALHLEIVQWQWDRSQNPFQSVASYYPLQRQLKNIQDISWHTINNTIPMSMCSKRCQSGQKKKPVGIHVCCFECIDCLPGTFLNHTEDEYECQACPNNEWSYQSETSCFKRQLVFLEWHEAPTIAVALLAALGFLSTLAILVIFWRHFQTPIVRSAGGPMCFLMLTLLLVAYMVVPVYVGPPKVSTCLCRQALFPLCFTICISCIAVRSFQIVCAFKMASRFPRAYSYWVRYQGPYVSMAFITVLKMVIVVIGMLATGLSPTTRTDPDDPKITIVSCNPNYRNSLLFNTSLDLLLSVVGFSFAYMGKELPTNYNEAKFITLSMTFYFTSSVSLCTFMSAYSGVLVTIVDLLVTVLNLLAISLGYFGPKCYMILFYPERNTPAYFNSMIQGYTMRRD
# T1 sequence (Q7RTX0 21-852): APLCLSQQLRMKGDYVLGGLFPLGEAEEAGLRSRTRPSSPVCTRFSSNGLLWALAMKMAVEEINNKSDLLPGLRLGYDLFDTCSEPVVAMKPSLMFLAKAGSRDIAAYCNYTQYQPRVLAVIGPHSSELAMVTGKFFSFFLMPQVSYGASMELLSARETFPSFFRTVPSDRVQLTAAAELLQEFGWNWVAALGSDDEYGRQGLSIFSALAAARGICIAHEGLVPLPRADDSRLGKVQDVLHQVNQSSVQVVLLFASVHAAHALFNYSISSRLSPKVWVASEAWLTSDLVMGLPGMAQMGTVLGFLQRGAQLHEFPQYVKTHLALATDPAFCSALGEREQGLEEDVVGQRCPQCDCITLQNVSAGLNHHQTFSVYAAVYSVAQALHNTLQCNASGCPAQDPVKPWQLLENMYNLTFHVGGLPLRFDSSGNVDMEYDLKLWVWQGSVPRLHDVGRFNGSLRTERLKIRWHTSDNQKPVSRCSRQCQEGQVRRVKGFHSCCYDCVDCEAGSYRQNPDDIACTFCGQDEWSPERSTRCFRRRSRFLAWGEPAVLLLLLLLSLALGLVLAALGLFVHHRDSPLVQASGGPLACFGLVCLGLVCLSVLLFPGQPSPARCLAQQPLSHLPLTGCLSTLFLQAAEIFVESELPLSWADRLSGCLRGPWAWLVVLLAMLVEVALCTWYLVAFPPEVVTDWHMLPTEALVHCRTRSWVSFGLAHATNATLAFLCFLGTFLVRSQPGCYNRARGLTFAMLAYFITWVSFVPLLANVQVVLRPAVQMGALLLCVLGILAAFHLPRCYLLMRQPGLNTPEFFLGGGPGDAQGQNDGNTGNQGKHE
# Settings: relative sweetness on a weight comparison basis to sucrose (=1.0)
row,Sweetness/potency,Compound
1,210,C=C1C[C@@]23CC[C@H]4[C@@](C)(CCC[C@@]4(C)C(=O)O[C@@H]4O[C@H](CO)[C@@H](O)[C@H](O)[C@H]4O)[C@@H]2CC[C@]1(O[C@@H]1O[C@H](CO)[C@@H](O)[C@H](O)[C@H]1O[C@@H]1O[C@H](CO)[C@@H](O)[C@H](O)[C@H]1O)C3 [Stevioside]
2,1000,CC[C@@H](C)C(=O)O[C@@H](C)[C@]1(O)CC[C@]2(O)[C@@H]3CC[C@H]4C[C@@H](O[C@@H]5C[C@H](O)[C@H](O[C@H]6C[C@H](OC)[C@H](O[C@H]7C[C@@H](OC)[C@H](O[C@H]8C[C@@H](OC)[C@H](O[C@@H]9O[C@H](C)[C@@H](O[C@@H]%10O[C@H](CO)[C@@H](O)[C@H](O)[C@H]%10O)[C@H](OC)[C@H]9O)[C@@H](C)O8)[C@@H](C)O7)[C@@H](C)O6)[C@@H](C)O5)CC[C@]4(C)[C@H]3C[C@@H](OC(C)=O)[C@]12C [Telosmoside A15]
3,13,C/C=C/c1ccc(OC)cc1 [trans-Anethole]
4,600,Albiziasaponin B
5,500,Baiyunoside
6,"2,000","Brazzein (QDKCKKVYENYPVSKCQLANQCNYDCKLDKHARSGECFYDEKRNLQCICDYCEY; UniProt P56552 1-54, looked up) [sweet protein from Pentadiplandra brazzeana]"
7,51,Carnosifloside V
8,550,Curculin
9,200,Cyclocarioside A
10,250,Cyclocaryoside I
11,"3,000",Monellin
12,500,Pentadin
13,95,Periandrin II
14,85,Periandrin IV
15,600,Polypodoside A
16,50,Pterocaryoside A
17,150,Rebaudioside B
18,30,Rebaudioside C
19,54,Scandenoside R6
20,"1,600",Thaumatin

row,Compound,Sweetness/potency
1,O=C/C=C/c1ccccc1 [Trans-Cinnamaldehyde],50

# System: GLP-1
# Settings: rats
row,Compound,increase in GLP-1 with administration of a DPP-IV inhibitor
1,OCCN1C[C@H](O)[C@@H](O)[C@H](O)[C@H]1CO [miglitol],synergistic

# System: not given
# Settings: patients with jejunostomy
Compound,intestinal absorption of energy,intestinal wet weight absorption
"GLP-2: gut hormone, glucagon-like peptide 2 (HADGSFSDEMNTILDNLAARDFINWLIQTKITD; Glucagon-like peptide 2; UniProt P01275 146-178, looked up)",improve,improve

# System: not given
# Settings: bitter phytonutrients in common plant foods
row,Compound,Taste quality
1,C=CCC(=NOS(=O)(=O)O)S[C@@H]1O[C@H](CO)[C@@H](O)[C@H](O)[C@H]1O (stereo in doubt) [Sinigrin],Bitter
2,C[S+]([O-])CCCN=C=S (stereo not shown) [3-Methyl-sulfinylpropyl isothiocyanate],Acrid mustard oils
3,C[S+]([O-])CCCCN=C=S (stereo not shown) [4-Methylsulfinyl butyl isothiocyanate],Acrid mustard oils
4,O=c1c(-c2ccc(O)cc2)coc2cc(O[C@@H]3O[C@H](CO)[C@@H](O)[C@H](O)[C@H]3O)ccc12 [Daidzin],Astringent
5,O=C(O[C@@H]1Cc2c(O)cc(O)cc2O[C@@H]1c1ccc(O)c(O)c1)c1cc(O)c(O)c(O)c1 [Epicatechin gallate],Bitter and astringent
6,O=c1c(-c2ccc(O)cc2)coc2cc(O)cc(O)c12 [Genistein],Bitter or astringent
7,O=c1c(-c2ccc(O)cc2)coc2cc(O[C@@H]3O[C@H](CO)[C@@H](O)[C@H](O)[C@H]3O)cc(O)c12 [Genistin],Astringent
8,O=S(=O)(O)ON=C(Cc1c[nH]c2ccccc12)S[C@@H]1O[C@H](CO)[C@@H](O)[C@H](O)[C@H]1O [Glucobrassicin],Bitter
9,"C=CC1CNC(=S)O1 (stereo not shown) [Goitrin 5-vinyl-2-oxazolidine thione, 5-vinyl-2-oxazolidine thione]",Bitter
10,CC1(C)O[C@H]2CC(=O)OC[C@]23[C@H]2CC[C@@](C)([C@@H](O[C@@H]4O[C@H](CO)[C@@H](O)[C@H](O)[C@H]4O)c4ccoc4)[C@@]4(O[C@@H]4C(=O)O)[C@]2(C)C(=O)C[C@@H]13 [Limonin glucoside],Tasteless
11,CC1(C)O[C@H]2CC(=O)OC[C@]23[C@H]2CC[C@@]4(C)[C@H](c5ccoc5)OC(=O)[C@H]5O[C@]54[C@]2(C)C(=O)C[C@@H]13 [Limonin],Bitter
12,C[C@@H]1O[C@@H](O[C@H]2[C@H](Oc3cc(O)c4c(c3)O[C@H](c3ccc(O)cc3)CC4=O)O[C@H](CO)[C@@H](O)[C@@H]2O)[C@H](O)[C@H](O)[C@H]1O [Naringin],Bitter
13,COc1ccc(-c2cc(=O)c3c(OC)c(OC)c(OC)c(OC)c3o2)cc1OC [Nobiletin],Bitter
14,CC(=O)O[C@H]1CC(=O)OC(C)(C)[C@@H]2CC(=O)[C@]3(C)[C@H](CC[C@@]4(C)[C@H](c5ccoc5)OC(=O)[C@H]5O[C@]543)[C@@]12C [Nomilin],Bitter
15,C=C[C@H](O)CC(=NOS(=O)(=O)O)S[C@@H]1O[C@H](CO)[C@@H](O)[C@H](O)[C@H]1O [Progoitrin],Bitter
16,O=c1c(O)c(-c2ccc(O)c(O)c2)oc2cc(O)cc(O)c12 [Quercetin],Bitter
17,COc1ccc(-c2cc(=O)c3c(OC)c(OC)c(OC)cc3o2)cc1OC [Sinensetin],Bitter
18,COc1ccc(-c2cc(=O)c3c(OC)c(OC)c(OC)c(OC)c3o2)cc1 [Tangeretin],Bitter
19,O=c1c(-c2ccc(O)cc2)coc2cc(O)ccc12 [daidzein],Bitter or astringent
